Measured values as given in patent US9340577B2, “HLA binding motifs and peptides and their uses” (priority 1992, dated 2016).
No end group written: not given here.

Experiments:
Assay in all cases: biochemical
Assay type in all cases: binding
[1] = biological target: HLA-A11 (A*1101) (Homo sapiens, UniProt P04439, A114D/D185E/E176A/F33Y/L180Q/S129P/T187R)
[2] = biological target: A*6801 (Homo sapiens, UniProt P04439, A269V/D185E/E176V/E277Q/E87N/F33Y/G231S/I121M/I166T/I218V/L180W/L300P/L318F/N151K/P208A/P217A/Q86R/R169H/T345S)
[3] = biological target: A*3301 (Homo sapiens, UniProt P04439, A270S/D185E/E176V/E277Q/E87N/F33T/G231S/H175R/I121M/I218V/I322F/K168Q/K210R/L300P/L318F/M331R/P217A/Q86R/Q94H/R138Q/T323A/T345S/T97I/V358M/Y195H)
[4] = biological target: HLA-A3.2 (A*0301) (Homo sapiens, UniProt P04439)
[5] = biological target: A31 (A*3101) (Homo sapiens, UniProt P04439, A270S/D185E/E176V/E277Q/F33T/G231S/G80R/H175R/I121M/I218V/I322F/K168Q/L300P/L318F/M331R/P217A/Q94H/R138Q/T323A/T345S/T97I/V358M)

Compound | IC50 [1] [nM] | IC50 [2] [nM] | IC50 [3] [nM] | IC50 [4] [nM] | IC50 [5] [nM]
CSCC[C@H](NC(=O)[C@@H](NC(=O)[C@H](C)N)[C@@H](C)O)C(=O)N[C@@H](CS)C(=O)N[C@@H](CCCCN)C(=O)N[C@@H](Cc1c[nH]cn1)C(=O)N[C@@H](Cc1ccc(O)cc1)C(=O)N[C@@H](CCCNC(=N)N)C(=O)N[C@@H](CCCNC(=N)N)C(=O)O [Peptide 88.0343] | 19 | 55 | 74 | 221 | 23
CSCC[C@H](NC(=O)[C@@H](N)CCCCN)C(=O)N[C@@H](Cc1ccccc1)C(=O)N[C@@H](CS)C(=O)N[C@@H](CCC(N)=O)C(=O)N[C@@H](CC(C)C)C(=O)N[C@@H](C)C(=O)N[C@@H](CCCCN)C(=O)O [Peptide 1556.52] | 22 | 1280 | > 20000 | 37 | 410
CC(C)C[C@H](NC(=O)[C@H](Cc1c[nH]cn1)NC(=O)[C@H](CO)NC(=O)[C@H](CO)NC(=O)[C@H](Cc1c[nH]cn1)NC(=O)[C@H](C)NC(=O)[C@@H](N)CCCNC(=N)N)C(=O)N[C@@H](CCCCN)C(=O)O [Peptide 1556.70] | 18 | 2880 | > 20000 | 27 | 619
CC[C@H](C)[C@H](N)C(=O)N[C@@H](CO)C(=O)N[C@@H](Cc1ccccc1)C(=O)N[C@@H](C)C(=O)NCC(=O)N[C@H](C(=O)N[C@H](C(=O)N[C@H](C(=O)N[C@@H](CCCCN)C(=O)O)[C@@H](C)O)C(C)C)[C@@H](C)CC [Peptide 1589.17] | 9.5 | 31 | 4370 | 33 | 
AACWRSRRR [Peptide 78.0322] | 18800 | > 20000 | 17500 | 5600 | 407
AAEGVGAASR [Peptide 9017.0187] | 478 | 450 | 5100 | > 20000 | 3270
AAFDLSFFLK [Peptide 9017.0189] | 2.3 | 1.9 |  | 9 | 130
AFDLSHFLK [Peptide 9017.0063] | 46 | 216 | 1440 | 777 | 639
AFNSSHKGR [Peptide 88.0394] | > 20000 | > 20000 |  | > 20000 | 55
AFRDLCIVYR [Peptide 78.0079] | 4380 | 600 | 41 | 3110 | 13
ALKGLAQSK [Peptide 88.0416] | 1660 | > 20000 | > 20000 | 65 | 
ALTALIKPK [Peptide 9017.0098] | 19 | 6020 | > 20000 | 24 | 
AQVLHVLKRK [Peptide 88.0141] | 104 | 15800 | > 20000 | 161 | 
ATLQDIVLH [Peptide 78.0278] | 152 | > 20000 | > 20000 | 4510 | 
CFYSPALNK [Peptide 1556.43] | 74 | 1450 | 122 | 127 | 
CTELKLVYR [Peptide 78.0334] | > 20000 | 1330 |  | > 20000 | 64
DSNACAFLK [Peptide 1587.33] | 303 | 68 | 39 | 1420 | 
ETNEALELK [Peptide 1556.68] | 93 | 1440 |  | 16800 | > 20000
FLGAFKKFLK [Peptide 88.0169] | 9.6 | 275 |  | 3.3 | 11
FTAFLGAFK [Peptide 88.0362] | 3.8 | 5.4 | 71 | 31 | 
FTAFLGAFKK [Peptide 88.0168] | 25 | 20 |  | 1900 | > 20000
GVEFISFLR [Peptide 1587.55] | 440 | 48 |  | > 20000 | 124
GVIVMMLIR [Peptide 88.0376] | 434 | 2770 | 214 | 2380 | 
GVMCRHYKR [Peptide 88.0388] | 80 | 93 |  | 2890 | 37
GVSIEWRLRR [Peptide 9017.0220] | 468 | 4420 |  | 7780 | 189
IQIKRRQQK [Peptide 9012.0207] | 20 | > 20000 | > 20000 | 29 | 
ITVYYGVPVWR [Peptide 1525.06] | 76 | 5.4 |  | 831 | 13
IVGWPAVRER [Peptide 9017.0186] | 1170 | 81 |  | 630 | 110
